± gives the uncertainty stated by the source.
Assay: xn = mol fraction of the nth substance listed
Settings: 101 kPa

CCC[N+]1(C)CCCC1.O=S(=O)([N-]S(=O)(=O)C(F)(F)F)C(F)(F)F + CS(C)=O
electrical conductivity [S/m], frequency 0.0005 MHz
Settings | 278.15 K | 288.15 K | 298.15 K | 308.15 K | 318.15 K | 328.15 K | 338.15 K | 348.15 K | 358.15 K
x1 = 0.05995 | – | 0.967 ± 0.039 | 1.18 ± 0.047 | 1.4 ± 0.056 | 1.62 ± 0.065 | 1.85 ± 0.074 | 2.08 ± 0.08 | 2.31 ± 0.09 | 2.54 ± 0.1
x1 = 0.1606 | 0.953 ± 0.038 | 1.21 ± 0.048 | 1.5 ± 0.06 | 1.79 ± 0.071 | 2.01 ± 0.08 | 2.39 ± 0.1 | 2.76 ± 0.11 | 3.05 ± 0.12 | 3.39 ± 0.14
x1 = 0.3647 | 0.66 ± 0.026 | 0.879 ± 0.035 | 1.09 ± 0.044 | 1.37 ± 0.055 | 1.65 ± 0.066 | 1.9 ± 0.076 | 2.12 ± 0.08 | 2.41 ± 0.1 | 2.75 ± 0.11

viscosity [mPa·s]
Settings | 278.15 K | 288.15 K | 298.15 K | 308.15 K | 318.15 K | 328.15 K | 338.15 K | 348.15 K | 358.15 K
x1 = 0.05995 | – | 3.56 ± 0.14 | 2.86 ± 0.12 | 2.367 ± 0.095 | 1.965 ± 0.079 | 1.682 ± 0.068 | 1.446 ± 0.058 | 1.27 ± 0.051 | 1.126 ± 0.046
x1 = 0.1606 | 7.89 ± 0.32 | 5.88 ± 0.24 | 4.56 ± 0.18 | 3.66 ± 0.15 | 2.99 ± 0.12 | 2.51 ± 0.1 | 2.138 ± 0.086 | 1.847 ± 0.075 | 1.623 ± 0.066
x1 = 0.3647 | 20.1 ± 0.84 | 13.94 ± 0.56 | 10.18 ± 0.41 | 7.75 ± 0.31 | 6.1 ± 0.25 | 4.93 ± 0.2 | 4.08 ± 0.16 | 3.44 ± 0.14 | 2.95 ± 0.12
x1 = 1 | 163.6 ± 7 | 96.2 ± 4 | 60.6 ± 2.4 | 40.8 ± 1.6 | 28.9 ± 1.2 | 21.3 ± 0.86 | 16.29 ± 0.66 | 12.82 ± 0.52 | 10.34 ± 0.42

O + C[C@@H](O)[C@H](N)C(=O)O + CCCCCCCCCCCCCCCC[n+]1ccccc1.[Cl-]
Settings | electrical conductivity [S/m]
308.15 K, x2 = 0, x3 = 0 | 6.7e-05 ± 1e-06

O + C[C@H](N)C(=O)O + CCCCCCCCCCCCCCCC[n+]1ccccc1.[Cl-]
Settings | electrical conductivity [S/m]
308.15 K, x2 = 0, x3 = 0 | 6.7e-05 ± 1e-06
